Publication doi:10.1101/2023.11.24.568596v1 (biorxiv, 2023)

Columns and labels:
Conditions in all cases: binder
BRAF = BRAF (Homo sapiens, UniProt P15056)
FGFR2 = FGFR2 (Homo sapiens, UniProt P21802)
MSSK1 = MSSK1 (Homo sapiens, UniProt Q9UPE1)
BRD4 = BRD4 (Homo sapiens, UniProt O60885)
AKT3 = AKT3 (Homo sapiens, UniProt Q9Y243)
NEK1 = target: T1, NEK1 (Homo sapiens, UniProt Q96PY6)
T1 sequence (Q96PY6 1-1258): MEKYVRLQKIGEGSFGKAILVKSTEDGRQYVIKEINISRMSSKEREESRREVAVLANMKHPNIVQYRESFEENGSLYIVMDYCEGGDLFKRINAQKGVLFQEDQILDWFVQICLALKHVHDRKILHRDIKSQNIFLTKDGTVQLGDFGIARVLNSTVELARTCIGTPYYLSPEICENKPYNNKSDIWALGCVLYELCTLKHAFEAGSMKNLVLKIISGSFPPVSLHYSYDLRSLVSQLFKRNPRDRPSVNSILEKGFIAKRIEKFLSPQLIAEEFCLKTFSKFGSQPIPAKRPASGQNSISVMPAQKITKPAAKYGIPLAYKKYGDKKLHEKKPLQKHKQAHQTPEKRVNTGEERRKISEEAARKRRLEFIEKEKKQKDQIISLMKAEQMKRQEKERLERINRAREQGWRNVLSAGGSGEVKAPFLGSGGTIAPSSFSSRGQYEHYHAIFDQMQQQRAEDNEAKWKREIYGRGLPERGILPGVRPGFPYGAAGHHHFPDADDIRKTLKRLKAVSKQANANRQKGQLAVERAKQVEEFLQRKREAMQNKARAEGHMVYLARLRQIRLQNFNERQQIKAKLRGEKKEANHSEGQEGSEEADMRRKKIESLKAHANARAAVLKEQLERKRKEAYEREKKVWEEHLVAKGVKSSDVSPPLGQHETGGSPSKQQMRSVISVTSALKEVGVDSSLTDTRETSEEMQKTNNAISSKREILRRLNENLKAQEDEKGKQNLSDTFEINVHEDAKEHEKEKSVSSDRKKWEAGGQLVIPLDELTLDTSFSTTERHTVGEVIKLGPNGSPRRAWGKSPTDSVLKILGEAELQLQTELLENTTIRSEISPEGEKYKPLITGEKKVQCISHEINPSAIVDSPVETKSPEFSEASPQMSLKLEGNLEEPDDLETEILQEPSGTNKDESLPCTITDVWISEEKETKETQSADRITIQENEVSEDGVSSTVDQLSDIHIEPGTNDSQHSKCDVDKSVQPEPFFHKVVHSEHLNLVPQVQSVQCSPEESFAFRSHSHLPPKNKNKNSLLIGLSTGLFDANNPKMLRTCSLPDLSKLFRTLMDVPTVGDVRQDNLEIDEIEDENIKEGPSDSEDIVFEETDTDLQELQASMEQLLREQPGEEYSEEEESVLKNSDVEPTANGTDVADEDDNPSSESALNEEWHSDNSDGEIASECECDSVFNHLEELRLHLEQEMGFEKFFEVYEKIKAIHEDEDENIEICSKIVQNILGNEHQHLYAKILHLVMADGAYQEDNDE

CHK2 = CHK2 (Homo sapiens, UniProt O96017)
Sequence of CHK2 (O96017 whole entry): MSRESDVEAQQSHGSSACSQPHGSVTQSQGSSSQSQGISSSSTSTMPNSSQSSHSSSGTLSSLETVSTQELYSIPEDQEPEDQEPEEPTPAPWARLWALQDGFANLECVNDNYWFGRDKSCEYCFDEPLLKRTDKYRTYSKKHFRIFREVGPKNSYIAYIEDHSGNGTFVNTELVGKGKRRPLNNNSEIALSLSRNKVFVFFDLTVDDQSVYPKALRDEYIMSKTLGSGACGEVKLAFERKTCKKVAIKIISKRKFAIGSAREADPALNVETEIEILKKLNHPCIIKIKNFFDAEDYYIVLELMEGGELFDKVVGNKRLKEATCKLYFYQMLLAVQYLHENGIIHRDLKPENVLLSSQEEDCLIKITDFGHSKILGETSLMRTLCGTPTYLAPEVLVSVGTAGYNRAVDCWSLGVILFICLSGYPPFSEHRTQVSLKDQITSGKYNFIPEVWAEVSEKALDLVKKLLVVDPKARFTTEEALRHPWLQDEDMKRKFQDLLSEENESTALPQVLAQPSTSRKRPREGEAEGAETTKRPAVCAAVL

DCAMKL1 = target: T2, DCAMKL1 (Homo sapiens, UniProt O15075)
T2 sequence (O15075 1-740): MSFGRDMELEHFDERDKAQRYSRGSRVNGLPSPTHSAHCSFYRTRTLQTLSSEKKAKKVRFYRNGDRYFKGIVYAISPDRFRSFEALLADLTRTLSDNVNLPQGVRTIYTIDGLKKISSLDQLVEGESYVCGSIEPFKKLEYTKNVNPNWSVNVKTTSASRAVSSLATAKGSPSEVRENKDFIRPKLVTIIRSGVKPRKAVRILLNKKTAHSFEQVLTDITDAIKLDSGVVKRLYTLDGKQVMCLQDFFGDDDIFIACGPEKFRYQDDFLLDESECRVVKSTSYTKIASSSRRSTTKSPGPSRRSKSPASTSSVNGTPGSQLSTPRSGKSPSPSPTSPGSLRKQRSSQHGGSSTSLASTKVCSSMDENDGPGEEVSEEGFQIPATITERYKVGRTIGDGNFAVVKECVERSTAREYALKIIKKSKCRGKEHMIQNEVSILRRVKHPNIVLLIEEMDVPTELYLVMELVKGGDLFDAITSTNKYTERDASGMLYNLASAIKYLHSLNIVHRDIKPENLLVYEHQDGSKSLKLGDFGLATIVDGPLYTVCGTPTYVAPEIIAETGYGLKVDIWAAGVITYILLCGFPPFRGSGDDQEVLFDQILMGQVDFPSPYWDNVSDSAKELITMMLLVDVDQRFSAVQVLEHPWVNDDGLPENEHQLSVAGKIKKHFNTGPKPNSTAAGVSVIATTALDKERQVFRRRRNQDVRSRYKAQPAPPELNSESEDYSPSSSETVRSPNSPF

Sequence of AKT3 (Q9Y243 whole entry): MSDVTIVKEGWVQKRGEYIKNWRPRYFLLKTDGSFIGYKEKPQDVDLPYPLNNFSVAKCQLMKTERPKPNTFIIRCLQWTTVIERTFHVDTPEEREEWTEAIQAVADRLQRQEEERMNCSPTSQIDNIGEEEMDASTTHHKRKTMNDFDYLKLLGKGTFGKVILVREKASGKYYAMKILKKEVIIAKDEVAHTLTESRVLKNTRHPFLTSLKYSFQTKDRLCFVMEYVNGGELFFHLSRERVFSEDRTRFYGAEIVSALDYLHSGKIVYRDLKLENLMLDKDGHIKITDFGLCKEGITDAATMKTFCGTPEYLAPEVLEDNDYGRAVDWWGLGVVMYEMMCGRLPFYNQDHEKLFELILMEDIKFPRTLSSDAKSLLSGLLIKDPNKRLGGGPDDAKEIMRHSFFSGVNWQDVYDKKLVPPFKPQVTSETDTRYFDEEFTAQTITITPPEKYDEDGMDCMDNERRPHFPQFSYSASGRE
Sequence of MSSK1 (Q9UPE1 whole entry): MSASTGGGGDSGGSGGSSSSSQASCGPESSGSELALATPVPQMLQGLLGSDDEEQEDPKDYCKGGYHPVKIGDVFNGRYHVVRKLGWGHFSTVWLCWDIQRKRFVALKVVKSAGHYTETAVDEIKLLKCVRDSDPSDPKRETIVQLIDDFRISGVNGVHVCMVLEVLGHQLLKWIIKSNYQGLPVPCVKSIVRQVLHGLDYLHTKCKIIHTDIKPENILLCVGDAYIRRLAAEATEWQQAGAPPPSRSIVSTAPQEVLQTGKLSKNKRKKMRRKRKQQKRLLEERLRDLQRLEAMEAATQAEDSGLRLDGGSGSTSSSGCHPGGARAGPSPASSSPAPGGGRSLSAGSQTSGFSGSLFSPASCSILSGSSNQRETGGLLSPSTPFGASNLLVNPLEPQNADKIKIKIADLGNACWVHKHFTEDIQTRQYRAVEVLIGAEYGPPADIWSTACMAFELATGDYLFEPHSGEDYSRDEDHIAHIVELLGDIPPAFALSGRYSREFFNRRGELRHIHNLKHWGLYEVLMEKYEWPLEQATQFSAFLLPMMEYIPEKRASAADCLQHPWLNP
Sequence of FGFR2 (P21802 whole entry): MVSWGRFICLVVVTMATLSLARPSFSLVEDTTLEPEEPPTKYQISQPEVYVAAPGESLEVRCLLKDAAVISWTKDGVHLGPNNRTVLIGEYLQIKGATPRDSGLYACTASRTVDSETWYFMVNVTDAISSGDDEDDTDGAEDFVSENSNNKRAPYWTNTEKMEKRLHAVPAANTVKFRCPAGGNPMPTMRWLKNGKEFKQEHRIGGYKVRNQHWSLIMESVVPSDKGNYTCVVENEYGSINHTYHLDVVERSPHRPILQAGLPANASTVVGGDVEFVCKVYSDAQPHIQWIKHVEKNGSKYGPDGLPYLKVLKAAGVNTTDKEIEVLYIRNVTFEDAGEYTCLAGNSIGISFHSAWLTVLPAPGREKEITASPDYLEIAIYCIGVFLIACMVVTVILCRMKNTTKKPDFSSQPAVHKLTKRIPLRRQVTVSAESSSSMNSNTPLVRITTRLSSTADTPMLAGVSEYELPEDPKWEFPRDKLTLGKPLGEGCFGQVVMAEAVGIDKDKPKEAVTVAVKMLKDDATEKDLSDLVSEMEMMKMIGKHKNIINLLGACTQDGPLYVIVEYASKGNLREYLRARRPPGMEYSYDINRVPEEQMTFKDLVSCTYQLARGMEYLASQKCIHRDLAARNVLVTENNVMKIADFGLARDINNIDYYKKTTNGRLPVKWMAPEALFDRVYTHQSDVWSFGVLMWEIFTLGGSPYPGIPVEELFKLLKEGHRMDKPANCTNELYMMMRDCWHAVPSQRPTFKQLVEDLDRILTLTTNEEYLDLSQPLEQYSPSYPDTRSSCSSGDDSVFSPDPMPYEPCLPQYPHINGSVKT
Sequence of BRAF (P15056 whole entry): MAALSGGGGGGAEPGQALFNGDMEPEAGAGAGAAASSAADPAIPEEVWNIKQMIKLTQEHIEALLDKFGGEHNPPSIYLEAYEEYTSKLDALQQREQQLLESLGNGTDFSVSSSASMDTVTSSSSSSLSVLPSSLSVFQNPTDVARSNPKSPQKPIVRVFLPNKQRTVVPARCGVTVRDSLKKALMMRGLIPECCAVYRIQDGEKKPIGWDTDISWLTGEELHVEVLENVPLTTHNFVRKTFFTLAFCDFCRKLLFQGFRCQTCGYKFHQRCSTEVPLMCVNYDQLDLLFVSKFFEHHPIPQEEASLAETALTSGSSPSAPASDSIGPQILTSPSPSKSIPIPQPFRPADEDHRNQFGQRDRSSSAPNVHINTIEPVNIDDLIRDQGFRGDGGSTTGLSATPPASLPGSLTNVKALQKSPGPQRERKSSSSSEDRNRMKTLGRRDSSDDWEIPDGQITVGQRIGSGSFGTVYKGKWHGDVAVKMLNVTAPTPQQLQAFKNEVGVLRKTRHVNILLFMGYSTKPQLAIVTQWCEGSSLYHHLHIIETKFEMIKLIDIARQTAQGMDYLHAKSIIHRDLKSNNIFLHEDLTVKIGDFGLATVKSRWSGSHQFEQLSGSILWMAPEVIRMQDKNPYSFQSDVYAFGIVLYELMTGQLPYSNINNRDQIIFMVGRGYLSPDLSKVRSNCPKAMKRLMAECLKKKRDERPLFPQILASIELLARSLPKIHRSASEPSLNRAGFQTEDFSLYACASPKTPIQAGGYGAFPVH

Cc1cccc(-c2ccc(-c3cc4cnc(NCCCN5CCCC5=O)nc4n(CCCCN)c3=O)c(Cl)c2)n1 [compound 27, MR30]
ΔTm MR30 (27) (BRAF): 2.6 °C | ΔTm MR30 (27) (FGFR2): 1.0 °C | ΔTm MR30 (27) (MSSK1): -0.4 °C | ΔTm MR30 (27) (BRD4): -3.9 °C | ΔTm MR30 (27) (AKT3): 0.9 °C | ΔTm MR30 (27) (NEK1): -0.3 °C | ΔTm MR30 (27) (CHK2): 2.5 °C | ΔTm MR30 (27) (DCAMKL1): -1.8 °C

Cc1cccc(-c2ccc(-c3cc4cnc(Nc5cc(C(F)(F)F)ccc5C)nc4n(CCCCN)c3=O)c(Cl)c2)n1 [compound 28, 8-(4-Aminobutyl)-6-(2-chloro-4-(6-methylpyridin-2-yl)phenyl)-2-((2-methyl-5-(trifluoromethyl)phenyl)amino)pyrido[2,3-d]pyrimidin-7(8H)-one]
ΔTm 28 (BRAF): 3.2 °C | ΔTm 28 (FGFR2): 3.8 °C | ΔTm 28 (MSSK1): -0.9 °C | ΔTm 28 (BRD4): -3.7 °C | ΔTm 28 (AKT3): 0.3 °C | ΔTm 28 (NEK1): 0.2 °C | ΔTm 28 (CHK2): 4.6 °C | ΔTm 28 (DCAMKL1): 0.9 °C

Cc1cccc(-c2ccc(-c3cc4cnc(NCCCN5CCNCC5)nc4n(CCCCN)c3=O)c(Cl)c2)n1 [compound 29, 8-(4-Aminobutyl)-6-(2-chloro-4-(6-methylpyridin-2-yl)phenyl)-2-((3-(piperazin-1-yl)propyl)amino)pyrido[2,3-d]pyrimidin-7(8H)-one]
ΔTm 29 (BRAF): 1.5 °C | ΔTm 29 (FGFR2): 1.7 °C | ΔTm 29 (MSSK1): -0.3 °C | ΔTm 29 (BRD4): -2.2 °C | ΔTm 29 (AKT3): 0.8 °C | ΔTm 29 (NEK1): 0.3 °C | ΔTm 29 (CHK2): 2.4 °C | ΔTm 29 (DCAMKL1): -1.7 °C

Cc1cccc(-c2ccc(-c3cc4cnc(Nc5ccc(CCCO)cc5)nc4n(CCCCN)c3=O)c(Cl)c2)n1 [compound 30, 8-(4-Aminobutyl)-6-(2-chloro-4-(6-methylpyridin-2-yl)phenyl)-2-((4-(3-hydroxypropyl)phenyl)amino)pyrido[2,3-d]pyrimidin-7(8H)-one]
ΔTm 30 (BRAF): 6.2 °C | ΔTm 30 (FGFR2): 3.9 °C | ΔTm 30 (MSSK1): -0.2 °C | ΔTm 30 (BRD4): -2.4 °C | ΔTm 30 (AKT3): 4.3 °C | ΔTm 30 (NEK1): -3.1 °C | ΔTm 30 (CHK2): 10.4 °C | ΔTm 30 (DCAMKL1): 2.0 °C

Cc1cccc(-c2ccc(-c3cc4cnc(Nc5ccc(O)cc5)nc4n(CCCCN)c3=O)c(Cl)c2)n1 [compound 31, 8-(4-Aminobutyl)-6-(2-chloro-4-(6-methylpyridin-2-yl)phenyl)-2-((4-hydroxyphenyl)amino) pyrido[2,3-d]pyrimidin-7(8H)-one]
ΔTm 31 (BRAF): 5.0 °C | ΔTm 31 (FGFR2): 3.9 °C | ΔTm 31 (MSSK1): 0.0 °C | ΔTm 31 (BRD4): -1.6 °C | ΔTm 31 (AKT3): 4.2 °C | ΔTm 31 (NEK1): -3.3 °C | ΔTm 31 (CHK2): 11.2 °C | ΔTm 31 (DCAMKL1): 1.1 °C

Cc1cccc(-c2ccc(-c3cc4cnc(Nc5ccc(C)c(O)c5)nc4n(CCCCN)c3=O)c(Cl)c2)n1 [compound 32, 8-(4-Aminobutyl)-6-(2-chloro-4-(6-methylpyridin-2-yl)phenyl)-2-((3-hydroxy-4-methylphenyl)amino)pyrido[2,3-d]pyrimidin-7(8H)-one]
ΔTm 32 (BRAF): 5.7 °C | ΔTm 32 (FGFR2): 4.2 °C | ΔTm 32 (MSSK1): -0.2 °C | ΔTm 32 (BRD4): -2.7 °C | ΔTm 32 (AKT3): 3.6 °C | ΔTm 32 (NEK1): -3.0 °C | ΔTm 32 (CHK2): 11.0 °C | ΔTm 32 (DCAMKL1): 1.4 °C
